This is an account of results in article PMC11329928, “Design, synthesis and structure-activity relationship (SAR) studies of an unusual class of non-cationic fatty amine-tripeptide conjugates as novel synthetic antimicrobial agents” (Frontiers in Pharmacology, 2024).

A short description of series [1]: RP-HPLC retention time used to determine hydrophobicity. The note with it: analytical RP-HPLC, C18 Sunfire column (4.6 mm × 150 mm, 3.5 μm); A = 0.05% TFA in water, B = acetonitrile; 10% to 100% B in 20 min then isocratic 100% B 10 min; 217 and 254 nm; used as measure of hydrophobicity. The series is classed as physicochemical.
The next series has as its system S. pneumoniae D39. The series is classed as cell-based, Streptococcus pneumoniae. The note with it: for SC (stationary concentration, Δlog = 0), S. pneumoniae D39 / EC50 / Δlogmax, S. pneumoniae D39: 1 h treatment, 37°C, Hill fit; for SC (stationary concentration, Δlog = 0), S. pneumoniae D39: C + Y medium, added at T1, 10^7–10^8 CFU/mL, CFU vs untreated controls; for EC50 / Δlogmax, S. pneumoniae D39: C + Y; for EC50: read-out: K 1/2 (concentration yielding half-variation in Δlogmax), S. pneumoniae D39 (converted); for Δlogmax, S. pneumoniae D39: maximum variation in viability. From the text:
First, the substitution of the fatty amino chain of 18 carbon atoms of the reference compound DICAM 2 by either an OMe group (methylated tripeptide DICAM 5) or an amine with 12 carbon atoms (DICAM 9) abolished the activity against all three pathogens. However, the activity remained intact when the chain of the fatty amine of prototypes DICAMs 1 and 4 was two carbon atoms shorter (DICAM 10 and DICAM 12, respectively), based on S. pneumoniae and S. pyogenes results. […] Third, Glu and Ala were tolerated as C-terminal residues of the lipotripeptides. […] In addition, deletion of the C-terminal Glu (DICAM 13) eradicated the activity against S. pneumoniae and S. aureus. However, a delay and small inhibition of S. pyogenes ^T growth was still observed. Fourth, Glu (DICAMs 19 and 20) and Orn (DICAMs 21 and 22) were tolerated as N-terminal residues, with the impact of these modifications being pathogen-dependent. […] SAR studies continued by measuring the dose dependence of DICAM’s activity at T1 with all the compounds found to be active against S. pyogenes or S. aureus in the initial screening, and all but one compound in the case of S. pneumoniae. The OD values of bacterial cultures were monitored after DICAM addition, and the decrease in the number of viable bacteria was measured relative to controls (Figures 4–6; Supplementary Figure S1). As antibacterial efficacy may decline with the bacterium dose in the inoculum ([Belley et al., 2009]; [Udekwu et al., 2009]; [Luca et al., 2013]), the assays were performed using the bacterial concentrations necessary for the fluorescence experiments in Section 2.3 (10^7–10^8 CFU/mL). At these high bacterial densities, MICs were determined as the DICAM concentration at which bacteria neither grow nor are killed (the stationary concentration (SC)), following [Udekwu et al., 2009]. By fitting the logarithmic plot of cell viability decrease vs. the DICAM dose to a Hill function (see Section 5.2.3.1) we were able to determine the maximum variation in viability (Δlogmax = ∆log f - ∆log 0, where ∆log f and ∆log 0 are the upper and lower limits of Δlog) in the assay conditions, the SC concentration (Δlog = 0), the dose required for half-variation in Δlogmax (K 1/2), and the cooperativity of the antimicrobial effect (N H).
Susceptibility to DICAMs was first tested by growth-inhibition assays at 50 and 100 μM of compound. Briefly, working solutions at 5 mM or 10 mM DICAM in pure DMSO were prepared from DICAM stocks (40 mM in pure DMSO) and diluted with fresh culture medium to 5× the desired final concentration. Aliquots (50 µL) of these solutions were added to 200 µL of bacterium cultures grown to early exponential phase (OD550/600 c. a. 0.15–0.2 in sterile 96-well plates (Cultek, Spain). Incubation continued for 10 h at 37°C and turbidity (OD550/600) values were measured every 20 min to monitor growth and lysis, using a VersaMax microplate reader (Molecular Devices; United Kingdom). Next, the activity dependence on DICAM’s dose was examined by measuring the turbidity of treated and untreated cultures as a function of time. Also, the decay of bacterial viability (CFU/mL) at selected times of treatment was assessed by colony counting on LB-agar or TSA plates after overnight incubation at 37°C. By default, 10 μL of 10-fold serially diluted samples were plated, which set the lower detection limit at 10^2 CFU/mL (10^1 CFU/mL when 100 μL of the undiluted sample was seeded).
As antibacterial efficacy may decline with the bacterium dose in the inoculum ([Belley et al., 2009]; [Udekwu et al., 2009]; [Luca et al., 2013]), activity assays were performed using the bacterial concentrations required for the fluorescence experiments in Section 2.3 (10^7–10^8 CFU/mL). At such bacterial densities, MICs were determined as the DICAM concentration at which bacteria neither grow nor are killed under assay conditions (the stationary concentration (SC)), as indicated in Section 2.2. […]

Series [2] has as its system human fetal lung fibroblasts IMR-90. The format is cell-based. The conditions noted are these: 48 h. How it is done:
DICAM’s cytotoxicity was determined employing a modified MTT assay as described elsewhere ([Antúnez-Mojica et al., 2016]) using human lung carcinoma epithelial cells A549, human fetal lung fibroblasts IMR-90, and human HeLa cervix carcinoma cells treated with increasing concentrations of DICAMs (0.8–200 µM range). A549 cells were grown in RPMI 1640 (Gibco; Fisher Scientific, Spain) supplemented with 10% FCS, 2 mM glutamine, 100 IU/mL penicillin and 100 μg/mL streptomycin. IMR-90 and HeLa cells were cultured in DMEM (Gibco; Fisher Scientific, Spain) supplemented with 10% FCS, 2 mM L-glutamine, 1 mM pyruvate, […] penicillin, 100 μg/mL streptomycin and 40 μg/mL gentamycin. Cell viability was assessed after 48 h exposure to DICAMs. Vinblastine was used as a positive control. IC50 value is the concentration that gives 50% inhibition of cell growth and was determined using SigmaPlot (Systat) fitting to a Four Parameter Logistic curve.

Counter-ions that a name gives are not always drawn.

What is called IC50 is the concentration needed to halve the response being measured. The low end stands for greater potency, the high end for weaker potency. Compound `CCCCCCCCCCCCCCCCCCNC(=O)[C@H](CCC(=O)O)NC(=O)[C@H]1CCCN1C(=O)[C@@H](N)CCC(=O)O` [DICAM 20, Glu- Pro -Glu-NH-C18H37 · HCl] gave a Retention time in series [1] of 18.71 min. In the series on S. pneumoniae D39, the “SC (stationary concentration, Δlog = 0), S. pneumoniae D39” value is recorded as 3.0 ± 0.7 µM; the EC50 was 4.4 ± 0.6 µM; the “Δlogmax, S. pneumoniae D39” value came out at 3.0 ± 0.1 logarithmic units. Moreover, the “Bacterial viability reduction at 10 μM” value in the series with S. pneumoniae D39 (S. pneumoniae D39, within 60 min, 10 μM) is reported as over 99.5%. Also, the “Reduction of the number of viable cells at 3 × SC, S. pneumoniae” value in the series with S. pneumoniae D39 (after 1-h incubation at 3 × SC values) was 99.2%–99.8. This compound displayed a half-inhibitory concentration (IC50) in series [2] of 78.6 ± 0.1 µM.
In series [1], `CCCCCCCCCCCCCCCCCCNC(=O)[C@H](CCC(=O)O)NC(=O)[C@H]1CCCN1C(=O)[C@@H](N)CCCN` [DICAM 22, Orn- Pro -Glu-NH-C18H37 · HCl] had a Retention time of 16.91 min. For the same compound, in the series on S. pneumoniae D39, the “SC (stationary concentration, Δlog = 0), S. pneumoniae D39” value was 20 ± 8 µM; the EC50 is 22 ± 8 µM; the “Δlogmax, S. pneumoniae D39” value is recorded as 1.4 ± 0.4 logarithmic units. Besides, the IC50 in series [2] was 58 ± 0.4 µM.
